Measurements reported in ChEMBL document CHEMBL3886985, “Benzothiophene derivative” (2016).

What follows are molecules tested against T1, cAMP and cAMP-inhibited cGMP 3',5'-cyclic phosphodiesterase 10A (Homo sapiens, UniProt Q9Y233) (assay: Activity Assay: A human acute lymphoblastic […] T cell line MOLT-4 (which can be purchased under ATCC No. CRL-1582 from ATCC) was cultured in an RPMI1640 medium containing 10% fetal bovine serum to obtain 5108 MOLT-4 cells. The cells were recovered by centrifugation and suspended in 10 ml of buffer solution A (25 mM Tris-HCl, 5 mM 2-mercaptoethanol, 2 mM benzamidine, 2 mM EDTA, and 0.1 mM 4-(2-aminoethyl)benzenesulfonyl hydrochloride, pH 7.5). The cells were homogenized using a Polytron homogenizer and centrifuged (4° C., 25,000 g, 10 minutes). Then, the supernatant was further ultracentrifuged (4° C., 100,000 g, 60 minutes). The obtained supernatant was filtered through a 0.2um filter to obtain a soluble fraction.HiTrap Q HP column (5 ml2, GE Healthcare Japan Corp.) equilibrated with buffer solution A was charged with the obtained soluble fraction. Phosphodiesterase was eluted with 300 ml of buffer solution A containing a linear gradient solution of 0 to 0.8 M NaCl to recover sixty 5-ml fractions. Each fraction was tested for cAMP-metabolizing phosphodiesterase activity. […] In order to confirm whether or not PDE10A mRNA was expressed in the MOLT-4 cells, total RNA was prepared from the MOLT-4 cells according to a standard method and analyzed by RT-PCR using PDE10A gene-specific primers (PDE10A sense primer: 5'-[…]-3' (SEQ ID NO: 1) and PDE10A antisense primer: 5'-[…]-3' (SEQ ID NO: 2)). As a result, PDE10A mRNA was detected from the total RNA of the MOLT-4 cells. On the other hand, total RNA was prepared from Jurkat cells, one type of human T cell, and similarly subjected to RT-PCR. As a result, PDE10A mRNA was rarely detected. An active peak centered around 250 mM NaCl was not observed in fractions obtained by the treatment of Jurkat cells in the same way as above. Eur J Biochem. 1999, 266 (3), 1118-2 has reported that PDE10A from the rat striatum and testis is eluted as an active peak centered around 250 mM NaCl.).
T1 sequence (Q9Y233 whole entry): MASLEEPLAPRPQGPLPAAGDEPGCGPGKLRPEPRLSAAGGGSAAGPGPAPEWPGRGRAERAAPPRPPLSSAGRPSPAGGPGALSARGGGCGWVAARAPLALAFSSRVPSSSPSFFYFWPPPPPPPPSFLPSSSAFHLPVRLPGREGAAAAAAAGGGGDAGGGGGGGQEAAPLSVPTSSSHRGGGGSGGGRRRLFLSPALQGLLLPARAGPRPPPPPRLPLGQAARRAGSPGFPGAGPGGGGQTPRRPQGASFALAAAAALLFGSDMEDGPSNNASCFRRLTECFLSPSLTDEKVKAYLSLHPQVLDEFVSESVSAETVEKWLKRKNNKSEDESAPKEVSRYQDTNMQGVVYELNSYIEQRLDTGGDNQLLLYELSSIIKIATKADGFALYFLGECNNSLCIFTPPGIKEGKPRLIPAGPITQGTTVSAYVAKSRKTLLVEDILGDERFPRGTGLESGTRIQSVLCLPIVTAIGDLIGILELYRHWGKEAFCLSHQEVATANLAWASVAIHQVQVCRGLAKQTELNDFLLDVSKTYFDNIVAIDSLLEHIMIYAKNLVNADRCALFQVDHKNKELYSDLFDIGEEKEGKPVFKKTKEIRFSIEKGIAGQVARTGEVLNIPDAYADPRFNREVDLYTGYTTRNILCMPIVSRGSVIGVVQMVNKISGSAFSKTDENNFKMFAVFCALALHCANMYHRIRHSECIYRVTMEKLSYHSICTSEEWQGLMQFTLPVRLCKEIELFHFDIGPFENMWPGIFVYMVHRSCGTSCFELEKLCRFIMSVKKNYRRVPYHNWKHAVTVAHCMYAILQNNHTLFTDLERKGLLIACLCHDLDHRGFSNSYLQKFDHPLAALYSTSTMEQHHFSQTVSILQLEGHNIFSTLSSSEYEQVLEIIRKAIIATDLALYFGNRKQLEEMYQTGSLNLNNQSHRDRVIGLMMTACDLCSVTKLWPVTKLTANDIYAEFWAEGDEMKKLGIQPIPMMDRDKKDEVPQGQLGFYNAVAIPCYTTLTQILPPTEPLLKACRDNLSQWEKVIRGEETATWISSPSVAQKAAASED
Assay type: cell-based

IC50 [nM] | Structure (SMILES)
1.8 | COCc1ccc(C(C)=O)c2sc(C(=O)Nc3ccc4c(CN(C)C)cccc4n3)c(C)c12
1 | COCc1ccc(C(C)=O)c2sc(C(=O)Nc3ccc4c(COC(=O)CCC(=O)O)cccc4n3)c(C)c12
0.45 | COCc1ccc(C(C)=O)c2sc(C(=O)Nc3cc(N(C)C)c4ccccc4n3)c(C)c12
1.1 | COCc1ccc(C(C)=O)c2sc(C(=O)Nc3ccc4ccccc4n3)c(C)c12
1.3 | COCc1ccc(C(C)=O)c2sc(C(=O)Nc3ccc4c(CN5CCOCC5)cccc4n3)c(C)c12
0.31 | COCc1ccc(C(C)=O)c2sc(C(=O)Nc3ccc4c(C(=O)N5CCN(C)CC5)cccc4n3)c(C)c12
1.2 | COCc1ccc(C(C)=O)c2sc(C(=O)Nc3ccc4c(CN5CC[C@@H](F)C5)cccc4n3)c(C)c12

What follows are molecules tested against T1, cAMP and cAMP-inhibited cGMP 3',5'-cyclic phosphodiesterase 10A (assay: Activity Assay: Inhibitory activity-1 assay: To a solution containing 20 mM Tris-HCl (pH 7.5), 1 mM MgCl2, 100 μM EDTA, 330 μg/ml bovine serum albumin, 50 kU/ml 5′-nucleotidase, 0.1 μCi 3H-cAMP (64 nM cAMP), and PDE10A (H-PDE10A2, Human Phosphodiesterase 10A2, Scottish Biomedical), a test compound was added, and the mixture was reacted at 25° C. for 2 hours. To the reaction solution, QAE-Sephadex (17-0190-01, GE Healthcare Japan Corp.) suspended in 10 mM HEPES-Na (pH 7.0) (hereinafter, also referred to as a “QAE-Sephadex suspension”) was added, and the mixture was shaken for 1 minute and left standing for 5 minutes to obtain a supernatant. To the supernatant, a QAE-Sephadex suspension was further added, and the mixture was shaken for 1 minute and left standing for 5 minutes. Then, the obtained supernatant was transferred to LumaPlate (PerkinElmer, Inc.) and assayed using a radiation counter (TopCount NXT, PerkinElmer, Inc.).).

Structure (SMILES) | IC50 [nM]
COCc1ccc(C(C)=O)c2sc(C(=O)Nc3ccc4c(COP(=O)(O)O)cccc4n3)c(C)c12 | 0.99
